Several values for one entry are separate records, joined by “and”; a condition that tells them apart may be missing. Equal values may be shown once. Read-outs that look alike come from different tables or passages of the source.
What was measured:
delta opioid receptor = delta opioid receptor (Rattus norvegicus, UniProt P33533); experiment: Rat brain delta opioid receptor binding assay ([3H]DPDPE); details: Rat delta opioid receptor binding constant, rat forebrain membranes, ~4 nM [3H]DPDPE
Description: Rat Brain Delta Opioid Receptor Binding Assay
Procedure: Male, Sprague Dawley rats (150-250 g, VAF, Charles River, Kingston, N.Y.) were killed by CO2, and their brains removed and placed immediately in ice cold Tris HCl buffer (50 mM, pH 7.4). The forebrains were separated from the remainder of the brain by a coronal transection, beginning dorsally at the colliculi and passing ventrally through the midbrain-pontine junction. After dissection, the forebrains were homogenized in Tris buffer in a Teflon®-glass homogenizer. The homogenate was diluted to a concentration of 1 g of forebrain tissue per 80 mL Tris and centrifuged at 39,000×g for 10 min. The pellet was resuspended in the same volume of Tris buffer containing 5 mM MgCl2 with several brief pulses from a Polytron homogenizer. This particulate preparation was used for the delta opioid binding assays. Following incubation with the delta selective peptide ligand ˜4 nM [^3H]DPDPE at 25° C. for 2.5 h in a 96-well plate with total volume of 1 mL, the plate contents were filtered through Wallac filtermat B sheets on a Tomtec 96-well harvester. The filters were rinsed three times with 2 mL of 10 mM HEPES (pH 7.4), and dried in a 650 W microwave oven for 1.75 min twice. To each sample area 2×50 μL of Betaplate Scint scintillation fluid (LKB) was added and the radioactivity quantified on a LKB (Wallac) 1205 BetaPlate liquid scintillation counter.
(§1) Analysis: The data from the scintillation counter were used to calculate either the % inhibition compared to control binding (when only a single concentration of test compound was evaluated) or a Ki value (when a range of concentrations was tested). Percent inhibition was calculated as: [(total dpm-test compound dpm)/(total dpm-nonspecific dpm)]*100. Kd and Ki values were calculated using GraphPad PRISM data analysis program.

mu opioid receptor = mu opioid receptor (Rattus norvegicus, UniProt P33535); experiment: Rat brain mu opioid receptor binding assay ([3H]DAMGO); details: Rat mu opioid receptor binding constant, rat forebrain membranes, ~0.8 nM [3H]DAMGO
Sequence of mu opioid receptor (P33535 whole entry): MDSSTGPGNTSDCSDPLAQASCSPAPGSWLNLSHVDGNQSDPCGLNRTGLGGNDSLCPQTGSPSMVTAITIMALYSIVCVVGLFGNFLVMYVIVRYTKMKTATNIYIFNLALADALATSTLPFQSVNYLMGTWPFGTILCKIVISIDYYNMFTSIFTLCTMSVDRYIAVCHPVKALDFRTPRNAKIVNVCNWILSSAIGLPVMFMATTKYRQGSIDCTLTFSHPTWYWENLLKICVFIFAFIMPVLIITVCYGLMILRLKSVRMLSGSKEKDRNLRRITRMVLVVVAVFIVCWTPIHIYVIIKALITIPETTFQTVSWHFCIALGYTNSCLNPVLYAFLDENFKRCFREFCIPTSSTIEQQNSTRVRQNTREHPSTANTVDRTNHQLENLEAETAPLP
Description: Rat Brain Mu Opioid Receptor Binding Assay
Procedure: Male, Sprague Dawley rats (150-250 g, VAF, Charles River, Kingston, N.Y.) were killed by CO2, and their brains removed and placed immediately in ice cold Tris HCl buffer (50 mM, pH 7.4). The forebrains were separated from the remainder of the brain by a coronal transection, beginning dorsally at the colliculi and passing ventrally through the midbrain-pontine junction. After dissection, the forebrains were homogenized in Tris buffer in a Teflon®-glass homogenizer. The homogenate was diluted to a concentration of 1 g of forebrain tissue per 80 mL Tris and centrifuged at 39,000×g for 10 min. The pellet was resuspended in the same volume of Tris buffer containing 5 mM MgCl2 with several brief pulses from a Polytron homogenizer. This particulate preparation was used for the delta opioid binding assays.
as §1, with “concentrations” for “concentrations was”

[1] = molecular target: T1, delta opioid receptor (NG108-15 cell membranes) (Mus musculus, UniProt P32300); experiment: [35S]GTPγS binding assay in NG108-15 cell membranes (delta opioid); format: biochemical; details: agonist-stimulated [35S]GTPγS binding
T1 construct: NG108-15 cell membranes were purchased from Applied Cell Sciences (Rockville, Md.); host or cells: NG108-15 cell membranes (purchased)
T1 sequence (P32300 whole entry): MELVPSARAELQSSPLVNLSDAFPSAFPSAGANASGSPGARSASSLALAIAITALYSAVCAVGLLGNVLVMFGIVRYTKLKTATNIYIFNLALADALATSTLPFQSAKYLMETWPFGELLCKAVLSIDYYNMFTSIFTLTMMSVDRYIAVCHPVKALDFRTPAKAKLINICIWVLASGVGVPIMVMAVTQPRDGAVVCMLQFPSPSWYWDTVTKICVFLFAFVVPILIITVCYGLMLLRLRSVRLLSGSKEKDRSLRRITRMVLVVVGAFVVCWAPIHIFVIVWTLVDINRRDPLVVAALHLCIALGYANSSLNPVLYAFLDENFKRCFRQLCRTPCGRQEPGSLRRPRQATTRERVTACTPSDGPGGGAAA
Description: [^35S]GTPγS Binding Assay in NG108-15 Cell Membranes (delta opioid)
Methods: NG108-15 cell membranes were purchased from Applied Cell Sciences (Rockville, Md.). 8 mg/mL of membrane protein suspended in 10 mM TRIS-HCl pH 7.2, 2 mM EDTA, 10% sucrose. Membranes were maintained at 4-8° C. A 1 mL volume of membranes was added into 10 mL cold binding assay buffer. The assay buffer contained 50 mM Tris, pH 7.6, 5 mM MgCl2, 100 mM NaCl, 1 mM DTT and 1 mM EGTA. The membrane suspension was homogenized twice with a Polytron, and centrifuged at 3000 rpm for 10 min. The supernatant was then centrifuged at 18,000 rpm for 20 min. Ten mL assay buffer was added into the pellet containing tube. The pellet and buffer were mixed with a Polytron.
Incubation procedure: The pellet membranes (75 μg/mL) were preincubated with SPA (10 mg/mL) at 25° C. for 45 min in the assay buffer. […] GTPγS in the same Tris buffer containing 100 μM GDP in total volume of 200 μL. Increasing concentrations of receptor agonists were used to stimulate [35S]-GTPγS binding. The basal binding was tested in the absence of agonists and non-specific binding was tested in the presence of 10 μM unlabeled GTPγS. The data were analyzed on a Packard Top Count.
% of Basal=(stimulated−non specific)*100/(basal−non specific). EC50 value values were calculated using GraphPad Prism.

[2] = molecular target: T2, hMOR (CHO-hMOR cell membranes) (Homo sapiens, UniProt P35372); experiment: [35S]GTPγS binding assay in CHO-hMOR cell membranes; format: biochemical
T2 construct: host or cells: CHO cells expressing hMOR (purchased membranes)
T2 sequence (P35372 whole entry): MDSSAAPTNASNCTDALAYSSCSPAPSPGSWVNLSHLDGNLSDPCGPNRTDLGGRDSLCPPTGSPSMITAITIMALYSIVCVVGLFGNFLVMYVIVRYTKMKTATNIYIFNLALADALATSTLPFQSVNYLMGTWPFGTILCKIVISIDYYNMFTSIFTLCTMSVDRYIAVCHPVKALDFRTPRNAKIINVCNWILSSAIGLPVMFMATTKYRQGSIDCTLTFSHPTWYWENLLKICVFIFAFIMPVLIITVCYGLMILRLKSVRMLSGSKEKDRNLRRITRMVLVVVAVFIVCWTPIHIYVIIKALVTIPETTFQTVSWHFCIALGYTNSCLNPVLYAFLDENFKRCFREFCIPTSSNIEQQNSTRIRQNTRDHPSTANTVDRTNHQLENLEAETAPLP
Description: [^35]GTPγS Binding Assays in CHO-hMOR Cell Membranes
Methods: CHO-hMOR cell membranes were purchased from Receptor Biology, Inc. (Baltimore, Md.). About 10 mg/mL of membrane protein was suspended in 10 mM TRIS-HCl pH 7.2, 2 mM EDTA, 10% sucrose, and the suspension kept on ice. A 1 mL volume of membranes was added to 15 mL cold binding assay buffer containing 50 mM HEPES, pH 7.6, 5 mM MgCl2, 100 mM NaCl, 1 mM DTT and 1 mM EDTA. The membrane suspension was homogenized with a Polytron and centrifuged at 3,000 rpm for 10 min. The supernatant was then centrifuged at 18,000 rpm for 20 min. The pellet was resuspended in 10 mL assay buffer with a Polytron. The membranes were preincubated with wheat germ agglutinin coated SPA beads (Amersham) at 25° C. for 45 min in the assay buffer. The SPA bead (5 mg/mL) coupled membranes (10 μg/mL) were then incubated with 0.5 nM [^35S]GTPγS in the assay buffer. […] A range of concentrations of receptor agonist was used to stimulate [35S]GTPγS binding. Both basal and non-specific binding was tested in the absence of agonist; non-specific binding determination included 10 μM unlabeled GTPγS.
Compounds were tested for function as antagonists by evaluating their potential to inhibit agonist-stimulated GTPγS binding. Radioactivity was quantified on a Packard TopCount. The following parameters were calculated: [formula] [formula]
EC50 values were calculated using GraphPad Prism.

[3] = NG108-15 cell membranes, read-out: DOR GTPγS EC50
[4] = CHO-hMOR cell membranes, [35S]GTPγS binding, read-out: hMOR GTPγS EC50
[5] = DOR GTPγS EC50, NG108-15 cell membranes

Sequence of delta opioid receptor (P33533 whole entry): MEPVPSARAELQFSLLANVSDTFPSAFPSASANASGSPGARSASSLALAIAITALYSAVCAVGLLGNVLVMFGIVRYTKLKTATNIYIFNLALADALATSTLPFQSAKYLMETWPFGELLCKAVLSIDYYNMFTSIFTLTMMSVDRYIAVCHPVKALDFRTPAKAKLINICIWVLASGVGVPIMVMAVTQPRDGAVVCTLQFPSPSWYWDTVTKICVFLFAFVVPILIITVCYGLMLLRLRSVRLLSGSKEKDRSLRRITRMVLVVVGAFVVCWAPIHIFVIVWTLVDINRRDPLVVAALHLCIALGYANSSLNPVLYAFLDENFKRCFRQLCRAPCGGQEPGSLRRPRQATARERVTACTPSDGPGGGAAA

Row | Structure (SMILES) | Ki (delta opioid receptor; read-out: DOR Ki) | Ki (mu opioid receptor; read-out: MOR Ki) | EC50 [1, 3] | EC50 [2, 4] | Ki (delta opioid receptor; DOR Ki) | Ki (mu opioid receptor; MOR Ki) | EC50 [1, 5] | EC50 [2]
1 | COc1cccc2c1Oc1cc(-c3ccccc3NC(C)=O)ccc1C2=C1CC2CCC(C1)N2 [Cpd 108] | 33.9 nM | 426 nM | 117 nM | – | – | – | – | –
2 | S=c1[nH]c(-c2ccc3c(c2)Oc2ccccc2C3=C2CC3CCC(C2)N3)no1 [Cpd 93] | 0.37 nM | 3740 nM | 631 nM | – | – | – | – | –
3 | CCN(CC)C(=N)c1ccc2c(c1)Oc1ccccc1C2=C1CC2CCC(C1)N2 [Cpd 126] | 1410 nM | > 10000 nM | > 10000 nM | > 10000 nM | – | – | – | –
4 | O=c1[nH]c(-c2ccc3c(c2)Oc2ccccc2C3=C2CC3CCC(C2)N3)no1 [Cpd 4, 3-[9-(8-Aza-bicyclo[3.2.1]oct-3-ylidene)-9H-xanthen-3-yl]-4H-[1,2,4]oxadiazol-5-one] | – | – | – | – | 6.78 nM | 768 nM | 128 nM | –
5 | O=C(NC(CO)Cc1ccccc1)c1ccc2c(c1)Oc1ccccc1C2=C1CC2CCC(C1)N2 (single isomer, unassigned) [Cpd 15] | – | – | – | – | 27.5 nM | 414 nM | 79 nM | –
6 | O=c1[nH]c(-c2ccc3c(c2)Oc2ccccc2C3=C2CC3CCC(C2)N3)ns1 [Cpd 101] | 7 nM | 465 nM | 281 nM | – | – | – | – | –
7 | COc1cccc2c1Oc1cc(-c3nnn[nH]3)ccc1C2=C1CC2CCC(C1)N2 [Cpd 82] | 5.6 nM | 307 nM | 88.4 nM | – | – | – | – | –
8 | S=c1[nH]c(-c2ccc3c(c2)Oc2ccccc2C3=C2CC3CCC(C2)N3)no1 [Cpd 94] | 0.04 nM | 219 nM | 126 nM | – | – | – | – | –
9 | COCCN(C)C(=O)c1ccc2c(c1)Oc1ccccc1C2=C1CC2CCC(C1)N2 [Cpd 7] | – | – | – | – | 7.63 nM | 1810 nM | 173 nM | –
10 | CCN(CC)C(=N)c1ccc2c(c1)Oc1ccccc1C2=C1CC2CCC(C1)N2 [Cpd 125] | – | – | – | – | 6.3 nM | 2050 nM | 78.3 nM | > 10000 nM
11 | O=c1[nH]c(-c2ccc3c(c2)Oc2ccccc2C3=C2CC3CCC(C2)N3)ns1 [Cpd 8, 3-[9-(8-Aza-bicyclo[3.2.1]oct-3-ylidene)-9H-xanthen-3-yl]-4H-[1,2,4]thiadiazol-5-one] | – | – | – | – | 10.8 nM | 1080 nM | 359 nM | –
12 | Oc1cccc2c1Oc1cc(-c3cnc4ccccc4c3)ccc1C2=C1CC2CCC(C1)N2 [Cpd 109] | 2.22 nM | 31 nM | 94.2 nM | 1230 nM | – | – | – | –
13 | Cc1cccc(C)c1OCC(C)NC(=O)c1ccc2c(c1)Oc1ccccc1C2=C1CC2CCC(C1)N2 (stereo not shown) [Cpd 13] | – | 2920 nM | 641 nM | – | 23.6 nM | – | – | –
14 | O=c1[nH]c(-c2ccc3c(c2)Oc2ccccc2C3=C2CC3CCC(C2)N3)no1 [Cpd 91] | 0.76 nM | > 10000 nM | 72.2 nM | – | – | – | – | –
15 | COc1cccc2c1Oc1cc(-c3cccnc3)ccc1C2=C1CC2CCC(C1)N2 [Cpd 71] | 5.7 nM | 1140 nM | 1940 nM | – | – | – | – | –
16 | c1ccc2c(c1)Sc1cc(-c3nnn[nH]3)ccc1C2=C1C[C@H]2CC[C@@H](C1)N2 (single isomer, unassigned) [Cpd 103, (1SR,5RS)-3-[3-(1H-tetrazol-5-yl)-thioxanthen-9-ylidene]-8-aza-bicyclo[3.2.1]octane] | – | – | – | – | 10.1 nM | 329 nM | 49.6 nM | –
17 | S=c1[nH]c(-c2ccc3c(c2)Oc2ccccc2C3=C2CC3CCC(C2)N3)no1 [Cpd 5, 3-[9-(8-Aza-bicyclo[3.2.1]oct-3-ylidene)-9H-xanthen-3-yl]-4H-[1,2,4]oxadiazole-5-thione] | – | – | – | – | 6.89 nM | 1020 nM | 104 nM | –
18 | c1cncc(-c2ccc3c(c2)Oc2ccccc2C3=C2CC3CCC(C2)N3)c1 [Cpd 12, 3-(3-Pyridin-3-yl-xanthen-9-ylidene)-8-aza-bicyclo[3.2.1]octane] | – | – | – | – | 24 nM | 2130 nM | 587 nM | 0.47 nM
19 | O=c1[nH]c(-c2ccc3c(c2)Oc2ccccc2C3=C2CC3CCC(C2)N3)no1 [Cpd 92] | 0.07 nM | 502 nM | 102 nM | – | – | – | – | –
20 | Oc1cccc2c1Oc1cc(-c3nnn[nH]3)ccc1C2=C1CC2CCC(C1)N2 [Cpd 90] | – | – | 0.7 nM | 90 nM | – | – | – | –
21 | CC(=O)Nc1ccccc1-c1ccc2c(c1)Oc1ccccc1C2=C1CC2CCC(C1)N2 [Cpd 2, N-{2-[9-(8-Aza-bicyclo[3.2.1]oct-3-ylidene)-9H-xanthen-3-yl]-phenyl}-aceta-mide] | – | – | – | – | 4.36 nM | 1140 nM | 394 nM | –
22 | c1ccc2c(c1)Oc1cc(-c3nnn[nH]3)ccc1C2=C1CC2CCC(C1)N2 [Cpd 80] | – | – | 226 nM | – | – | – | – | –
23 | O=C(NCc1cccc(F)c1)c1ccc2c(c1)Oc1ccccc1C2=C1CC2CCC(C1)N2 [Cpd 11] | 18.5 nM | 739 nM | 209 nM | – | – | – | – | –
24 | c1ccc2c(c1)Oc1cc(-c3nnn[nH]3)ccc1C2=C1CC2CCC(C1)N2 [Cpd 1, 3-[3-(1H-Tetrazol-5-ly)-xanthen-9-ylidene]-8-aza-bicyclo[3.2.1]octane] | – | – | – | – | 1.99 nM | 637 nM | 189 nM and 70.3 nM | –
25 | O=C(c1ccc2c(c1)Oc1ccccc1C2=C1CC2CCC(C1)N2)N1CCCC1 [Cpd 6, [9-(8-Aza-bicyclo[3.2.1]oct-3-ylidene)-9H-xanthen-3-yl]-pyrrolidin-1-yl-methanone] | – | – | – | – | 7.4 nM | 1400 nM | 59 nM | –
